Source: ChEMBL document CHEMBL1201862, “PubChem BioAssay data set” (2004)
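Method: 48-hour compound exposure of cells in 96-well plates, five concentrations, linear interpolation of endpoints. GI50 is the concentration that inhibits growth by half.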 The source made the active and inactive calls. Rule as the data show it: active = GI50 up to about 1.1 µM and inactive = higher.

Assays:
Test in all cases: inhibition of tumour cell growth, NCI panel, 48 h
[1] = system: BT-549
[2] = system: EKVX
[3] = system: HCT-15
[4] = system: HL-60
[5] = system: Hs-578T
[6] = system: LOX IMVI
[7] = system: MDA-MB-231
[8] = system: Malme-3M
[9] = system: NCI-H226
[10] = system: NCI/ADR-RES
[11] = system: OVCAR-4
[12] = system: RPMI-8226
[13] = system: SF-268
[14] = system: SK-MEL-5
[15] = system: SNB-75
[16] = system: T47D
[17] = system: TK-10
[18] = system: U-251
[19] = system: UO-31

Measured: GI50

Cc1ncc([N+](=O)[O-])n1CCNS(=O)(=O)CCCn1ccnc1[N+](=O)[O-]
inactive: [1] > 100 µM | [2] > 100 µM | [4] > 100 µM | [5] > 100 µM | [6] > 100 µM | [7] > 100 µM | [8] > 100 µM | [9] > 100 µM | [10] > 100 µM | [11] > 100 µM | [12] > 100 µM | [13] > 100 µM | [14] > 100 µM | [15] > 100 µM | [16] > 100 µM | [17] > 100 µM | [18] > 100 µM | [19] > 100 µM
> 100 µM: [3]

Cc1cc(S(=O)(=O)Nc2nc(Nc3ccc(Cl)cc3)n[nH]2)c(S)cc1Cl
4.53 µM: [3]
inactive: [1] > 100 µM | [2] > 100 µM | [4] > 100 µM | [5] 86.5 µM | [6] 75.7 µM | [7] > 100 µM | [8] > 100 µM | [9] > 100 µM | [10] > 100 µM | [11] > 100 µM | [12] > 100 µM | [13] 75.5 µM | [14] > 100 µM | [15] > 100 µM | [16] > 100 µM | [17] > 100 µM | [18] 27.9 µM | [19] 79.1 µM

CC1=NNC(=S)NCCCN2CCN(CCCNC(=S)NN=C(C)C=NNC(=S)NCCCN3CCN(CCCNC(=S)NN=C1)CC3)CC2
> 100 µM: [3]
inactive: [1] > 100 µM | [2] > 100 µM | [4] > 100 µM | [5] > 100 µM | [6] > 100 µM | [7] > 100 µM | [8] > 100 µM | [9] > 100 µM | [10] > 100 µM | [11] > 100 µM | [12] > 100 µM | [13] > 100 µM | [14] > 100 µM | [15] > 100 µM | [16] > 100 µM | [17] > 100 µM | [18] > 100 µM | [19] > 100 µM

NC(CNO)C(=O)O (centres undefined)
inactive: [1] > 100 µM | [2] > 100 µM | [4] 6.79 µM | [5] > 100 µM | [6] > 100 µM | [7] > 100 µM | [8] > 100 µM | [9] > 100 µM | [10] > 100 µM | [11] > 100 µM | [12] > 100 µM | [13] > 100 µM | [14] > 100 µM | [15] > 100 µM | [16] > 100 µM | [17] > 100 µM | [18] > 100 µM | [19] > 100 µM
> 100 µM: [3]

O=C(Nc1cc(C(=O)Nc2cccc(S(=O)(=O)O)c2)cc(C(=O)Nc2cccc(S(=O)(=O)O)c2)c1)c1cccc(C(=O)Nc2cc(C(=O)Nc3cccc(S(=O)(=O)O)c3)cc(C(=O)Nc3cccc(S(=O)(=O)O)c3)c2)c1
50.7 µM: [3]
inactive: [1] > 100 µM | [2] > 100 µM | [4] 17.7 µM | [5] > 100 µM | [6] > 100 µM | [7] > 100 µM | [8] > 100 µM | [9] > 100 µM | [10] > 100 µM | [11] > 100 µM | [12] > 100 µM | [13] > 100 µM | [14] > 100 µM | [15] > 100 µM | [16] > 100 µM | [17] > 100 µM | [18] > 100 µM | [19] > 100 µM

CN(c1cn(C2CC[C@@H](CO)O2)c(=O)[nH]c1=O)C1CCCCC1 (some centres undefined)
> 100 µM: [3]
inactive: [1] > 100 µM | [4] > 100 µM | [5] 30 µM | [6] > 100 µM | [7] > 100 µM | [8] > 100 µM | [9] > 100 µM | [10] > 100 µM | [11] > 100 µM | [12] > 100 µM | [13] > 100 µM | [14] > 100 µM | [15] 21.9 µM | [16] > 100 µM | [17] > 100 µM | [18] > 100 µM | [19] > 100 µM

CCOC(=O)c1cn(CC)c2ccc3ccsc3c2c1=O
inactive: [1] > 100 µM | [2] > 100 µM | [4] > 100 µM | [5] > 100 µM | [6] > 100 µM | [7] > 100 µM | [8] > 100 µM | [9] > 100 µM | [10] > 100 µM | [11] > 100 µM | [12] > 100 µM | [13] > 100 µM | [14] > 100 µM | [15] 69.5 µM | [16] > 100 µM | [17] > 100 µM | [18] 5.46 µM | [19] > 100 µM
> 100 µM: [3]

COC(=O)CCc1cc(OC)c2c(c1)[C@H](C(=O)OC)[C@@H](c1ccc(O)c(OC)c1)O2
32.7 µM: [3]
inactive: [1] 44.8 µM | [2] 58.2 µM | [4] 15.5 µM | [5] 38.4 µM | [6] 57.5 µM | [7] 50.6 µM | [8] 29.9 µM | [9] > 100 µM | [10] 40.9 µM | [11] 84.1 µM | [12] 17.6 µM | [13] 52.6 µM | [14] 35 µM | [15] 43.3 µM | [16] 55.5 µM | [17] > 100 µM | [18] 38.4 µM | [19] 52.1 µM

O=C1NC(c2ccccc2)N=C2Oc3ccccc3C=C12 (centres undefined)
0.153 µM: [3]
active: [2] 0.181 µM | [4] 0.212 µM | [5] 0.521 µM | [7] 0.569 µM | [8] 0.122 µM | [9] 0.579 µM | [10] 0.533 µM | [14] 0.185 µM | [15] 0.547 µM
inactive: [1] 32.6 µM | [6] 5.12 µM | [11] > 100 µM | [12] 19.3 µM | [13] 5.98 µM | [16] > 100 µM | [17] > 63.1 µM | [18] 4.21 µM | [19] 8.22 µM

COc1cc(C[S+]([O-])c2ccc(O)cc2)cc(OC)c1OC (centres undefined)
> 100 µM: [3]
inactive: [1] > 100 µM | [2] > 100 µM | [4] > 100 µM | [5] > 100 µM | [6] > 100 µM | [7] > 100 µM | [8] > 100 µM | [9] > 100 µM | [10] > 100 µM | [12] > 100 µM | [13] > 100 µM | [14] > 100 µM | [15] > 100 µM | [16] > 100 µM | [17] > 100 µM | [18] > 100 µM | [19] 66.2 µM

CC(=O)Nc1ccc(CNc2cc(=O)n(C)c(=O)[nH]2)cc1
inactive: [1] > 100 µM | [2] > 100 µM | [4] > 100 µM | [5] > 100 µM | [6] > 100 µM | [7] > 100 µM | [8] > 100 µM | [9] > 100 µM | [10] > 100 µM | [11] > 100 µM | [12] > 100 µM | [13] > 100 µM | [14] > 100 µM | [15] > 100 µM | [16] > 100 µM | [17] > 100 µM | [18] > 100 µM | [19] > 100 µM
> 100 µM: [3]

O=[N+]([O-])c1c(F)c(F)c2c(c1F)N(CCCCCl)c1ccccc1S2
1.6 µM: [3]
inactive: [1] 14.6 µM | [2] 21.7 µM | [4] 2.44 µM | [5] 24.8 µM | [6] 1.58 µM | [7] 7.89 µM | [8] 16.6 µM | [9] 17.7 µM | [10] 17.5 µM | [11] 8.57 µM | [12] 3.47 µM | [13] 6.04 µM | [14] 12.2 µM | [15] 6.46 µM | [16] 12.4 µM | [17] 16.9 µM | [18] 12.7 µM | [19] 16.9 µM

CC(=O)c1cccc(NC(=O)C(=O)c2c(O)oc3ccccc3c2=O)c1
> 100 µM: [3]
inactive: [1] > 100 µM | [2] > 100 µM | [4] 10 µM | [5] > 100 µM | [6] > 100 µM | [7] > 100 µM | [8] > 100 µM | [9] > 100 µM | [10] > 100 µM | [11] > 100 µM | [12] > 100 µM | [13] > 100 µM | [14] > 100 µM | [15] > 100 µM | [16] > 100 µM | [17] > 100 µM | [18] > 100 µM | [19] > 100 µM

CCCC(=O)NC1=C(NCC)C(=O)c2ccccc2C1=O
inactive: [1] > 100 µM | [4] 40.5 µM | [5] > 100 µM | [7] 83.4 µM | [8] 38.5 µM | [9] > 100 µM | [10] > 10 µM | [11] > 100 µM | [12] > 100 µM | [13] > 100 µM | [14] 74.1 µM | [15] > 100 µM | [16] > 100 µM | [17] > 100 µM | [18] > 100 µM
39.8 µM: [3]

Cn1c(=O)c2c(nc3[nH]c(=O)c(Br)cn32)n(C)c1=O
inactive: [1] > 100 µM | [2] 93.8 µM | [4] > 100 µM | [5] > 100 µM | [6] > 100 µM | [7] > 100 µM | [9] > 100 µM | [10] > 100 µM | [11] > 100 µM | [12] > 100 µM | [13] > 100 µM | [14] > 100 µM | [15] > 100 µM | [16] > 100 µM | [17] > 100 µM | [18] > 100 µM | [19] > 100 µM
> 100 µM: [3]
